Article PMC4881381, “Subcellular Localization of Galloylated Catechins in Tea Plants [Camellia sinensis (L.) O. Kuntze] Assessed via Immunohistochemistry” (Frontiers in Plant Science, 2016)

Biological target: T1, anti-galloylated catechin monoclonal antibody (mAb) P6C2
T1 construct: whole purified mAb (~150 kDa; 50 kDa heavy and 25 kDa light chains), biotinylated
Assay: bio-layer interferometry (ForteBio Octet Red […], SSA biosensors); direct ELISA
Assay type: binding

Structure (SMILES)	Kd
O=C(O[C@@H]1Cc2c(O)cc(O)cc2O[C@@H]1c1ccc(O)c(O)c1)c1cc(O)c(O)c(O)c1 [ECG, (-)-epicatechin-3-gallate]	0.197 µM
O=C(O[C@@H]1Cc2c(O)cc(O)cc2O[C@@H]1c1cc(O)c(O)c(O)c1)c1cc(O)c(O)c(O)c1 [EGCG, (-)-epigallocatechin-3-gallate]	9.25 µM
